The values that follow come from patent US20120064121A1, “PYRIDINE COMPOUNDS FOR INFLAMMATION AND IMMUNE-RELATED USES” (SYNTA PHARMACEUTICALS CORP., priority 2008, published 2012).

Structures can show the parent of a compound that is named as a salt. Bounds are passed on as bounds.

The subject of one test is IL-2 production. As to the kind of experiment: Inhibition of IL-2 production in PHA-activated Jurkat cells (ELISA). The test is classed as cell-based. The settings on record: Homo sapiens, Jurkat, 20 h, PHA 2.5 μg/mL, IL-2 ELISA. As for the experimental part: Jurkat cells were placed in a 96 well plate (0.5 million cells per well in 1% FBS medium) then a test compound of this invention was added at different concentrations. After 10 minutes, the cells were activated with PHA (final concentration 2.5 μg/mL) and incubated for 20 hours at 37° C. under CO2. The final volume was 200 μL. Following incubation, the cells were centrifuged and the supernatants collected and stored at −70° C. prior to assaying for IL-2 production. A commercial ELISA kit (IL-2 Eli-pair, Diaclone Research, Besancon, France) was used to detect production of IL-2, from which dose response curves were obtained. The IC50 value was calculated as the concentration at which 50% of maximum IL-2 production after stimulation was inhibited versus a non-stimulation control.
As for `Cc1ccc(-c2ccno2)cc1-c1ccc(NCc2c(F)cccc2F)cn1` [Compound 3, N-(2,6-difluorobenzyl)-6-(5-(isoxazol-5-yl)-2-methylphenyl)pyridin-3-amine], the concentration for half-maximal inhibition (IC50) (usually the midpoint of a concentration-inhibition curve) is 48 nM. Still for that read-out and setting: to `Fc1cccc(F)c1CNc1ccc(-c2cc(-c3nccs3)ccc2Cl)nc1` [Compound 4, 6-(2-chloro-5-(thiazol-2-yl)phenyl)-N-(2,6-difluorobenzyl)pyridin-3-amine] belongs 19 nM; to `Fc1cccc(F)c1CNc1ccc(-c2cc(-c3ncco3)ccc2Cl)cn1` [Compound 5, 5-(2-chloro-5-(oxazol-2-yl)phenyl)-N-(2,6-difluorobenzyl)pyridin-2-amine], 17 nM. The same measure, in the same setting: to `Cc1ccc(-c2cccnc2)cc1-c1ccc(NC(=O)c2c(F)cccc2F)nc1` [Compound 6, 2,6-difluoro-N-(5-(2-methyl-5-(pyridin-3-yl)phenyl)pyridin-2-yl)benzamide] belongs 3 nM; to `Cc1ccc(-c2ncccn2)cc1-c1ccc(NC(=O)c2c(F)cccc2F)nc1` [Compound 7, 2,6-difluoro-N-(5-(2-methyl-5-(pyrimidin-2-yl)phenyl)pyridin-2-yl)benzamide], 12 nM; to `O=C(Nc1ccc(-c2cc(-c3nccs3)ccc2Cl)cn1)c1ccncc1F` [Compound 8, N-(5-(2-chloro-5-(thiazol-2-yl)phenyl)pyridin-2-yl)-3-fluoroisonicotinamide], 11 nM. Same read-out and setting: to `O=C(Nc1ccc(-c2cc(-c3nccs3)ccc2Cl)cn1)c1ccccc1F` [Compound 11, N-(5-(2-chloro-5-(thiazol-2-yl)phenyl)pyridin-2-yl)-2-fluorobenzamide] belongs 13 nM; to `O=C(Nc1ccc(-c2cc(-c3nccs3)ccc2Cl)cn1)c1c(F)cccc1Cl` [Compound 12, 2-chloro-N-(5-(2-chloro-5-(thiazol-2-yl)phenyl)pyridin-2-yl)-6-fluorobenzamide], 10 nM; to `O=C(Nc1ccc(-c2cc(-c3nccs3)ccc2Cl)cn1)c1c(F)cccc1C(F)(F)F` [Compound 13, N-(5-(2-chloro-5-(thiazol-2-yl)phenyl)pyridin-2-yl)-2-fluoro-6-(trifluoromethyl)benzamide], 66 nM. `O=C(Nc1ccc(-c2cc(-c3nccs3)ccc2Cl)nc1)c1ccccc1C(F)(F)F` [Compound 14, N-(6-(2-chloro-5-(thiazol-2-yl)phenyl)pyridin-3-yl)-2-(trifluoromethyl)benzamide] displayed an IC50 of 71 nM. On the same count and under the same terms, the figure for `Cc1cc[nH]c1C(=O)Nc1ccc(-c2cc(-c3nccs3)ccc2Cl)cn1` [Compound 15, N-(5-(2-chloro-5-(thiazol-2-yl)phenyl)pyridin-2-yl)-3-methyl-1H-pyrrole-2-carboxamide] is 348 nM; for `Cn1cncc1C(=O)Nc1ccc(-c2cc(-c3nccs3)ccc2Cl)cn1` [Compound 16, N-(5-(2-chloro-5-(thiazol-2-yl)phenyl)pyridin-2-yl)-1-methyl-1H-imidazole-5-carboxamide] it is 91 nM. The compound `Cc1ncsc1C(=O)Nc1ccc(-c2cc(-c3nccs3)ccc2Cl)cn1` [Compound 17, N-(5-(2-chloro-5-(thiazol-2-yl)phenyl)pyridin-2-yl)-4-methylthiazole-5-carboxamide] yielded an IC50 of 81 nM. This IC50 and that of the compound before are within 1.5-fold of each other.

`O=C(Nc1ccc(-c2cc(-c3cccnc3)ccc2Cl)cn1)c1c(F)cccc1F` [Compound 18, N-(5-(2-chloro-5-(pyridin-3-yl)phenyl)pyridin-2-yl)-2,6-difluorobenzamide] showed an IC50 of 6 nM.

Still in this test, the particulars now being: PHA 2.5 μg/mL, 20 hours, IL-2 ELISA.
Compound `Fc1cccc(F)c1CNc1ccc(-c2cc(-c3nccs3)ccc2Cl)cn1` [Compound 1, 5-(2-chloro-5-(thiazol-2-yl)phenyl)-N-(2,6-difluorobenzyl)pyridin-2-amine] returned an IC50 of 56 nM. Take `Cc1ccc(-c2cccnc2)cc1-c1ccc(NC(=O)c2c(F)cccc2Cl)nc1` [Compound 9, 2-chloro-6-fluoro-N-(5-(2-methyl-5-(pyridin-3-yl)phenyl)pyridin-2-yl)benzamide]: the concentration for half-maximal inhibition (IC50) was > 1000 nM.

The test is the same for the next values; noted with them: PHA 2.5 μg/mL, 20 hours, IL-2 ELISA, hydrochloride.
With `Fc1cccc(F)c1CNc1ccc(-c2cc(-c3nccs3)ccc2Cl)cn1` [Compound 2, 5-(2-chloro-5-(thiazol-2-yl)phenyl)-N-(2,6-difluorobenzyl)pyridin-2-amine hydrochloride], the half-inhibitory concentration (IC50) stood at 21 nM.

`Cc1ccc(-c2cccnc2)cc1-c1ccc(NC(=O)c2c(F)cccc2Cl)nc1` [Compound 10, 2-chloro-6-fluoro-N-(5-(2-methyl-5-(pyridin-3-yl)phenyl)pyridin-2-yl)benzamide hydrochloride] returned an IC50 of 7 nM. This IC50 is about 3-fold lower than that of the compound before.
